From US20260209234A1, “SUBSTITUTED DIHYDROPYRROLO[3,4-D]PYRIMIDINE COMPOUNDS AND THEIR USE IN TREATING MEDICAL CONDITIONS” (Karuna Therapeutics, Inc., priority 2022, published 2026) come the findings set out here.

One experiment concerns the target T1, hM4 receptors (Homo sapiens, UniProt P08173).
T1 construct: expressed in transfected cells; host or cells: CHO cells
T1 sequence (P08173 1-479): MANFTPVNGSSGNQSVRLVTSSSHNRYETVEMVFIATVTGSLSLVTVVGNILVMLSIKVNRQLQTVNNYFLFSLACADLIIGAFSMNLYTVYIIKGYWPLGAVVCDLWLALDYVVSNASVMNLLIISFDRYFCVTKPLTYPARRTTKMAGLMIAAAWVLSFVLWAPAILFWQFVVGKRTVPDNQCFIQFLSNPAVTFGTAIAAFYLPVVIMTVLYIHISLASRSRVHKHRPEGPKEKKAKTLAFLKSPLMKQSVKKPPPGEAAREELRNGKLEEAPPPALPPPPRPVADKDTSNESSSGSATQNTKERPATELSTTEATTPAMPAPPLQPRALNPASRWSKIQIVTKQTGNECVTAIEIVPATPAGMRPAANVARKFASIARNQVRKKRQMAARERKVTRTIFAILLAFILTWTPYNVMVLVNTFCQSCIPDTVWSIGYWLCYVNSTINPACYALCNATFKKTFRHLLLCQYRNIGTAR
Put plainly: Human M4 PAM pERK assay. It counts as cell-based. The conditions noted are these: CHO cells expressing hM4; EC20 of acetylcholine (10 nM final); TR-FRET. The method, then:
(§1) Chinese hamster ovary (CHO) cells expressing either hM4 or rM4 receptors were frozen in assay ready vials (5×10^6 cells/vial) after bulking-up in culture. The day before an assay, vial(s) were thawed and cells seeded in 384 well white proxiplates at 1000/well for hM4 cells and at 2000/well for rM4 cells, in 10 μL of growth media (Hams/F12 with glutamax and 10% FCS) and incubated overnight at 37° C./5% CO2.
(§2) On the following morning, the growth media was removed by ‘flicking out’ over a bin, patting the inverted plate onto tissue, and then replacing with 10 μL of wash media (Hams/F12 with glutamax and 8 mM HEPES, NB: serum free). Then, the wash media was removed in the same way and replaced with 8 μL/well of the serum free media. Plates were then re-incubated for a further 4 hours at 37° C./5% CO2.
(§3) Compounds for testing were solubilized to 10 mM in DMSO and compound addition plates, consisting of ten-point concentration response curves (CRC) in duplicate points (10 μM top concentration, 1/2 log dilution series), were prepared by acoustic dispensing and the compound management group.
(§4) After the 4-hour incubation in serum free media, a 4 μL aliquot of the 3× compound solution containing an EC20 of acetylcholine (10 nM final concentration) was added to the cell plate using a 384 well plate to plate transfer. Then, the plate lid was replaced, and the cells incubated for 5 mins at 37° C./5% CO2. Following this final incubation, all cellular processes were stopped by the addition of 4 μL/well of lysis and blocking buffer and plates were incubated for 30 minutes at RT on an orbital shaker (gentle setting). Then, a final addition of 4 μL/well of antibody detection mix, containing both the Europium-Cryptate (donor) and d2 (acceptor) tagged detection components, was added followed by a further 2-hour incubation at RT, and then the plate was read using a TR-FRET (time resolved fluorescence resonance energy transfer) based protocol.

The next experiment has as its target T2, rM4 receptors (Rattus norvegicus, UniProt P08485).
T2 construct: expressed in transfected cells; host or cells: CHO cells
T2 sequence (P08485 1-478): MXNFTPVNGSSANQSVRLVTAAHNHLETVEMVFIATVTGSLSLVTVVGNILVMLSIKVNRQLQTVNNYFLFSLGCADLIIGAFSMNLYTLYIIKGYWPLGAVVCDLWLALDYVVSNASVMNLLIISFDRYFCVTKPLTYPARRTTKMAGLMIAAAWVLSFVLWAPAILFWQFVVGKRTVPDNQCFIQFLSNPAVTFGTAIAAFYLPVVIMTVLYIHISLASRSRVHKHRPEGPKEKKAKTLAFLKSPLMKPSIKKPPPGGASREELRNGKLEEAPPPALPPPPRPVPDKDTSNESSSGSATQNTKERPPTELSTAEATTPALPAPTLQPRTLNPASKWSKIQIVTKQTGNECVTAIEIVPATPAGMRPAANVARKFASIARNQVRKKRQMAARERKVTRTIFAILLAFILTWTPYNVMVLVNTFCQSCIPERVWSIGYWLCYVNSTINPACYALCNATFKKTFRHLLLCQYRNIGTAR
Put plainly: Rat M4 PAM pERK assay. The conditions noted are these: CHO cells expressing rM4; EC20 of acetylcholine (10 nM final); TR-FRET. The class given is cell-based. The method, then:
as §1, §2, §3, §4

In a further experiment the target is T3, human M4 receptor (Homo sapiens, UniProt P08173).
T3 construct: expressed in transfected cells
T3 sequence (P08173 1-479): T1 sequence (P08173 1-479)
Put plainly: M4 GTPγS PAM assay. The class given is biochemical. To be noted: membranes of CHO-K1 cells stably expressing human M4; EC20 acetylcholine 40 nM; 35S-GTP. The method, then:
The M4 GTPγS PAM method was used. Membranes were prepared for GTPgS binding assays from CHO-K1 cells stably expressing human M4 receptor. Briefly, cells were grown in 5-layer cell culture flasks. Cells were washed with 50 mL of PBS and then dissociated with 0.05% trypsin. Dissociated cells were then collected by centrifugation at 650×g for 8 minutes at 4° C. Pellets were washed again in PBS by centrifugation and resuspended in 30 mL of 20 mM HEPES, 10 mM EDTA, pH 7.4. After sitting on ice for 30 min, membranes were collected by centrifugation at 50000×g for 15′ at 4° C., resuspended in 30 mL of 20 mM HEPES, 0.1 mM EDTA, pH 7.4 and collected again by centrifugation. Pellets were then washed twice by centrifugation in 30 mL of 20 mM HEPES, pH 7.4, and stored at −80° C. until the day of the assay. On the day of the assay, pellets were thawed on ice and resuspended in 1 mL of 20 mM HEPES, pH 7.4, 10 mM MgCl2, 100 mM NaCl using dounce homogenization. Membrane protein concentration is determined by BCA protein assay (Promega, Madison, WI) according to Promega guidelines.
On the day of the assay, serial dilutions of test PAM compounds were brought up in assay buffer (20 mM HEPES, 10 mM MgCl2, 100 mM NaCl) at 4× final assay concentration. […] of membrane homogenates (containing […] of membrane protein) were prepared in assay buffer supplemented with GDP at 4× final assay concentration (final assay concentration of GDP is 5 μM for M2 and 0.1 μM for M4) and dispensed into 96 well polypropylene, U-bottom Greiner plates. […] of vehicle or test PAM compound at 4× of final assay concentration diluted in the assay buffer were added to membrane and plates are incubated for 10-15 minutes at room temperature with gentle shaking. Then, […] of EC20 acetylcholine in assay buffer at 4× final assay concentration was added to assay plates (EC20 final assay concentrations was 40 nM for human M4).
Plates were then incubated, with shaking, for an additional 10-15 minutes. […] of 0.4 nM 35S-GTP (Perkin Elmer, Waltham, MA) in assay buffer was added to assay mixtures. The binding reaction is left on the shaker for 1 hour at room temperature. Membranes in assay reactions were then transferred to GF/C filter plates (Unifilter, Perkin Elmer) and washed three times using a FilterMate Harvester (Perkin Elmer) with cold assay buffer containing no GDP. Filter plates were then dried at 40° C. overnight followed by the addition of […] of Beta Plate Scintillation liquid. Plates are top and bottom sealed before being read on TopCount scintillation counter (Perkin Elmer, Waltham, MA).

One may read the EC50 as the midpoint of the concentration-response curve. A high value points to weaker potency. In the case of `Cc1nc2c(c(OC(C)C)n1)CN(C(=O)CC1CN(c3ccnc(C(F)(F)F)c3)C1)C2` [Compound I-47, 1-(4-Isopropoxy-2-methyl-5,7-dihydro-6H-pyrrolo[3,4-d]pyrimidin-6-yl)-2-(1-(2-(trifluoromethyl)pyridin-4-yl)azetidin-3-yl)ethan-1-one], the EC50 on hM4 receptors, at rM4 receptors and on human M4 receptor was ≥ 2000 nM throughout.

Turning to `COc1nc(C)nc2c1C(C)N(C(=O)CC1CN(c3cccc(C#N)c3)C1)C2` (single isomer, unassigned) [Compound I-54, 3-(3-(2-(4-Methoxy-2,5-dimethyl-5,7-dihydro-6H-pyrrolo[3,4-d]pyrimidin-6-yl)-2-oxoethyl)azetidin-1-yl)benzonitrile], the EC50 at hM4 receptors, at rM4 receptors and at human M4 receptor was ≥ 2000 nM in each case.

For the compound `Cc1nc2c(c(OCC3CC3)n1)CN(C(=O)CC1CN(c3ccnc(C(F)(F)F)c3)C1)C2` [Compound I-50, 1-(4-(Cyclopropylmethoxy)-2-methyl-5,7-dihydro-6H-pyrrolo[3,4-d]pyrimidin-6-yl)-2-(1-(2-(trifluoromethyl)pyridin-4-yl)azetidin-3-yl)ethan-1-one], the EC50 on hM4 receptors, at rM4 receptors and on human M4 receptor was ≥ 2000 nM in each case.

With `COc1nc2c(c(OC)n1)C(C)N(C(=O)CC1CN(c3ccc(C#N)cc3)C1)C2` (single isomer, unassigned) [Compound I-66, 4-(3-(2-(2,4-dimethoxy-5-methyl-5,7-dihydro-6H-pyrrolo[3,4-d]pyrimidin-6-yl)-2-oxoethyl)azetidin-1-yl)benzonitrile], the EC50 at hM4 receptors is ≤ 100 nM; at rM4 receptors, 100 to 500 nM; on human M4 receptor, 500 to 2000 nM.

Take `COc1nc(C#N)nc2c1CN(C(=O)CC1CN(c3ccnc(C(F)(F)F)c3)C1)C2` [Compound I-2, 4-Methoxy-6-(2-(1-(2-(trifluoromethyl)pyridin-4-yl)azetidin-3-yl)acetyl)-6,7-dihydro-5H-pyrrolo[3,4-d]pyrimidine-2-carbonitrile]: the EC50 on hM4 receptors is ≤ 100 nM; on rM4 receptors, 500 to 2000 nM; at human M4 receptor, ≤ 100 nM.

`COc1nc(C#N)nc2c1C(C)N(C(=O)CC1CN(c3ccnc(OC(F)F)c3)C1)C2` (single isomer, unassigned) [Compound I-28, 6-(2-(1-(2-(Difluoromethoxy)pyridin-4-yl)azetidin-3-yl)acetyl)-4-methoxy-5-methyl-6,7-dihydro-5H-pyrrolo[3,4-d]pyrimidine-2-carbonitrile]: the EC50 was ≤ 100 nM at hM4 receptors, 100 to 500 nM at rM4 receptors and ≤ 100 nM at human M4 receptor.

With `COc1nc(C)nc2c1C(C)N(C(=O)CC1CN(c3ccc(C#N)cc3)C1)C2` (single isomer, unassigned) [Compound I-56, 4-(3-(2-(4-Methoxy-2,5-dimethyl-5,7-dihydro-6H-pyrrolo[3,4-d]pyrimidin-6-yl)-2-oxoethyl)azetidin-1-yl)benzonitrile], the EC50 was ≤ 100 nM on hM4 receptors, 100 to 500 nM at rM4 receptors and 100 to 500 nM on human M4 receptor.

As to `COc1nc(C#N)nc2c1C(C)N(C(=O)CC1CN(c3ncns3)C1)C2` (single isomer, unassigned) [Compound I-4, 6-(2-(1-(1,2,4-Thiadiazol-5-yl)azetidin-3-yl)acetyl)-4-methoxy-5-methyl-6,7-dihydro-5H-pyrrolo[3,4-d]pyrimidine-2-carbonitrile], the EC50 at hM4 receptors, on rM4 receptors and at human M4 receptor was ≥ 2000 nM in each case.

As to `COc1nc(C#N)nc2c1C(C)N(C(=O)CC1CN(c3ccnc(OC4CC4)c3)C1)C2` (single isomer, unassigned) [Compound I-13, 6-(2-(1-(2-Cyclopropoxypyridin-4-yl)azetidin-3-yl)acetyl)-4-methoxy-5-methyl-6,7-dihydro-5H-pyrrolo[3,4-d]pyrimidine-2-carbonitrile], the EC50 at hM4 receptors was ≥ 2000 nM; on rM4 receptors, ≥ 2000 nM; at human M4 receptor, 500 to 2000 nM.
